Patent US20090018121A1, “PREVENTIVE AND/OR THERAPEUTIC AGENT FOR RHEUMATOID ARTHRITIS” (Kowa Co., Ltd., priority 2005, published 2009)

Test system: rat collagen-induced arthritis model
Experiment: Edema suppressing effect in both hindlimbs in rat collagen-induced arthritis model (Edema Index)
Assay type: in vivo, rat (female Lewis, LEW/Crj)
Design: Edema Index: unit not given here
Conditions: sole administration; for Relative index: Edema Index relative to control group; for Relative index / Decrease rate (%) / Edema Index: oral; for Decrease rate (%): of Edema Index vs control group; for Edema Index: mean ± SE
Description: Female Lewis rats (LEW/Crj) (obtained from Charles River Laboratories Japan, Inc.) were used as test animals.
This Pre value was used as an index to divide the rats into groups by one-parameter-based block randomization, so that the values in the respective groups averaged out.
The collagen emulsion for sensitization used to induce arthritis in rats was prepared by homogenizing 0.3% Type II collagen liquid (manufactured by Collagen Research Center), Adjuvant Peptide (manufactured by Peptide Institute, Inc.) and Adjuvant Incomplete Freund (manufactured by DIFCO), using a Handy Micro Homogenizer (manufactured by Microtec Nition) under ice-cooling. The collagen emulsion thus prepared was intracutaneously administered at 10 sites in the back of each rat at a dose of 0.1 mL/site, to perform initial sensitization of the rat. Seven days after initial sensitization, 0.12 mL of the same collagen emulsion was intracutaneously administered to the tail head of each rat, to perform booster sensitization.
Drug administration was conducted from the day after the initial sensitization through 18 days thereafter. Drug A and Drugs B-1, B-2 and B-4 were all orally administered two times a day, in the morning (9:00 to 11:00 AM) and in the evening (15:30 to 17:30 PM). Drug B-3 was orally administered once a day, around noon (11:30 AM to 13:30 PM).
14 Days and 18 days after the initial sensitization, respectively, the hindlimbs volume was measured again for each rat, and the difference between each of the values and the Pre value was determined to calculate the edema volume for both hindlimbs. The sum of the edema volumes for both hindlimbs measured 14 days and 18 days after the initial sensitization was calculated as the Edema Index, and this was taken as an index for the effect of the drug.
The Edema Index is represented by an average value±standard error for 8 rats in each group. Also, the decrease rate is represented by the formula: ((X−Y)/X)×100 (wherein X: average value of Edema Index for the control group, Y: average value of Edema Index for each group).

Row | SMILES | Relative index (0.2 mg/kg, once a day) | Decrease rate (%) (0.2 mg/kg, once a day) | Edema Index (0.2 mg/kg, once a day) | Relative index (1 mg/kg, two times a day) | Decrease rate (%) (1 mg/kg, two times a day) | Edema Index (1 mg/kg, two times a day) | Relative index (3 mg/kg, two times a day) | Relative index (10 mg/kg, two times a day) | Decrease rate (%) (3 mg/kg, two times a day) | Decrease rate (%) (10 mg/kg, two times a day) | Decrease rate of Edema Index vs control group (%) (3 mg/kg) | Edema Index (3 mg/kg, two times a day, through 18 days after initial sensitization, sum of edema volumes of both hindlimbs at days 14 and 18) | Decrease rate of Edema Index vs control group (%) (10 mg/kg) | Edema Index (10 mg/kg, two times a day)
1 | Cc1cnc(NC(=O)C2=C(O)c3ccccc3S(=O)(=O)N2C)s1 [Drug B-3, meloxicam] | 0.58 | 42% | 2.04 ± 0.10 |  |  |  |  |  |  |  |  |  |  | 
2 | O=C(O)Cc1ccccc1Nc1c(Cl)cccc1Cl [Drug B-1, diclofenac sodium] |  |  |  | 0.33 | 67% | 1.20 ± 0.26 |  |  |  |  |  |  |  | 
3 | Cc1ccc(-c2cc(C(F)(F)F)nn2-c2ccc(S(N)(=O)=O)cc2)cc1 [Drug B-4, celecoxib] |  |  |  | 0.70 | 30% | 3.41 ± 0.16 | 0.61 | 0.46 | 39% | 54% | 39% | 2.46 ± 0.22 | 54% | 1.86 ± 0.19
4 | CSc1ccc(-c2nn(Cc3ccccc3)c(=O)cc2-c2ccc(Cl)cc2)cc1 [Drug A, 2-benzyl-5-(4-chlorophenyl)-6-[4-(methylthio)phenyl]-2H-pyridazin-3-one] |  |  |  |  |  |  |  | 0.81 |  | 19% |  |  |  | 2.93 ± 0.22
